We go through 1 compound from patent publication US20090054317A1 (priority 2006, published 2009).

Bounds are passed on as bounds.

The series concerns toxin-induced cell death in RAW264.7 cells. Conditions: mouse.

For `CC(=O)N[C@@H](C)C(=O)N[C@@H](Cc1c[nH]c2ccccc12)C(=O)N1CCC[C@H]1C(=O)N[C@@H](CC(C)C)C(=O)N[C@@H](CO)C(=O)N[C@@H](CCC(N)=O)C(=O)N[C@@H](CC(C)C)C(=O)N[C@@H](CC(=O)O)C(=O)N[C@@H](Cc1c[nH]cn1)C(=O)N[C@@H](CO)C(=O)N[C@@H](Cc1ccc(O)cc1)C(=O)N[C@@H](CC(N)=O)C(=O)N[C@@H](CS)C(N)=O` [corresponding monovalent peptide], the IC50 (commonly the concentration at which inhibition is half-maximal) was over 2000 µM.
